Reference: patent US20250352524A1, “PREVENTION OF METASTATIC OUTGROWTH USING TEAD INHIBITORS” (Georgetown University, priority 2024, published 2025)

What was measured:
4T1 cancer cells = assay: Real Time Cell Analysis, cytotoxicity of T-cells +/- macrophages towards 4T1 cells; type: cell-based, mouse
Excerpt: To investigate whether the effect of iTEAD treatment on macrophages can enhance their crosstalk with T-cells in the lung microenvironment, peritoneal macrophages+/−iTEAD were first isolated and characterized as a model of resident macrophages for ex vivo experiments (FIG. 14, Panel A). It was observed that treatment with VT107 decreased gene expression of M2-like and fibrosis regulators, Aldh1a1 and Cc117 (Chen et al., 2020), as well as TEAD4 and its downstream target gene Ankrd1. […] The iTEAD pretreated peritoneal macrophages and untreated T-cells isolated from the spleen of tumor naïve mice (FIG. 14, Panel A) were then mixed for 5 hours before collecting the conditioned media for analysis. […] Next, these immune cell mixes were added to 4T1 spheres that were embedded into matrix. […] This effect was reversed by an IL12 neutralizing antibody. No change in cleaved caspase-3 in 4T1 cells in the presence of VT107-treated T-cells or macrophages alone, was detected at 24 hours (FIG. 14, Panels C and D). 4T1 cells were then plated and allowed to attach on electrode-coated arrays to monitor cancer cell viability before the addition of macrophages+/−iTEAD and T-cells. […]
Cell analysis was done using E-plates from xCELLigence, (Agilent, #5469830001) according to the manufacturer's protocol. […] Cell index was measured by changes in electric impedance at 15 min intervals. […]

THP1 macrophages = assay: qPCR gene expression in THP1 macrophages; type: cell-based, human; conditions: 1 μM VT107 vs vehicle
Excerpt: To determine if knockdown of TEAD mimicked iTEAD effects, THP1 cells were transduced with shRNAs targeting TEAD 1, 3 and 4 or GFP as a control. Knockdown was confirmed by western blot with a pan TEAD antibody (FIG. 13, Panel A). […] TEAD knockdown in THP1 macrophages decreased protumor inflammatory cytokines CXCL2, 5, and 6 (FIG. 12, Panel C). […] Signaling pathways related to inflammatory diseases, such as rheumatoid arthritis, were decreased (FIG. 12, Panel D), as well as the inflammatory upstream regulators LPS and TNF (FIG. 12, Panel E). The score for M2-like upstream regulators, OSM (Shrivastava et al., 2019) and IL17A (Miller et al., 2020) was decreased by TEAD knockdown yet importantly, IL12 and the immune modulator used to enhance immunotherapy, NC410, scores were increased (Ramos et al., 2021) (FIG. 12, Panel D). Taken together, the response to iTEAD treatment or TEAD knockdown enhanced macrophages interaction with tumor cells and IL12 signaling. The global anti-inflammatory effect and the repression of the M2-like macrophage phenotypes are known to oppose the establishment of a hospitable metastatic niche (McGinnis et al., 2024; Sica et al., 2008; Noy & Pollard, 2014).
Total RNA was extracted from cell lines using a RNeasy Mini Kit (Qiagen, #74104) according to the manufacturer's instructions. cDNA from total RNA was made with the iScript cDNA synthesis kit according to the manufacturer's protocol (Biorad, #170-8891) and qPCR was performed in an iCycler iQ (BioRad) using the iQ SYBR Green Supermix (BioRad, #170-8882).

E0771 cells = assay: Real Time Cell Analysis, proliferation of E0771 cells; type: cell-based, mouse; conditions: increasing doses of VT107, cell index
Experimental: E0771 cells were injected into the mammary fat pad of C57BL/6 mice (Johnstone et al., 2015). When primary tumors became palpable at 3 weeks, mice were treated daily with VT107 or vehicle control. Mice weights were monitored throughout treatment (FIG. 8, Panel B). Primary tumors were surgically resected at week 4 and mice were euthanized at week 6 to inspect lungs for metastases (FIG. 9, Panel A)
Cell analysis was done using E-plates from xCELLigence, (Agilent, #5469830001) according to the manufacturer's protocol. For cell cytotoxicity, cancer cells (10,000-25,000 cells per well) were seeded and allowed to attach for 1-2 hours prior to the addition of immune cells and/or drug treatments. For cell proliferation, cancer cells were seeded at 5,000-10,000 cells per well with incremental doses of drug treatments or DMSO as a vehicle control. Cell index was measured by changes in electric impedance at 15 min intervals. TEAD inhibitors were obtained from Vivace therapeutics.

## VT107
4T1 cancer cells; extended VT107 treatment
  cytotoxicity of T-cells alone: slight increase
4T1 cancer cells; macrophages pretreated 24 hrs with 1 μM VT107, compared to T-cells alone
  T-cells' cytotoxicity towards 4T1 cells: significantly increased
THP1 macrophages
  CD80 gene expression level: increase
  IL12 gene expression level: increase
  expression of YAP/TEAD target genes CTGF, S100Δ8 and S100Δ9: downregulated
THP1 macrophages; listed as iTEAD
  expression of YAP/TEAD target genes CTGF, S100Δ8 and S100Δ9: decreased expression
E0771 cells
  proliferation of E0771 in vitro: did not impact
